System: HCV peptide-specific T cells (MHC class I-restricted CD8+ / MHC class II-restricted CD4+)
Test: IFN-γ ELIspot assay of spleen cells after vaccination of mice
Assay type: in vivo, HLA-A*0201 transgenic mice (HHD.2)
Procedure: Vaccine: clinical batch PD03127 (lot K) Injection volume of 100 μl per mouse contains:
As adjuvant: Poly-L-Arginine with an average degree of polymerisation of 40 to 50 arginine residues (determined by multiple angle laser light scattering (MALLS)); lot 113K7277; Sigma Aldrich Inc.; 400 μg • Additional adjuvant: Aldara™ containing 5% Imiquimod, an immunostimulatory agent acting via TLR7; 3M Health Care Ltd.; dose: approx 20 mg/mouse • Formulation buffer: 5 mM phosphate/270 mM sorbitol Experimental set-up 10 mice per group • 1. subcutaneous injection into the flank • 2. intradermal injection into the back • 3. intradermal injection into the back followed by immediate application of Aldara™ cream at injection area
On days 0, 14 and 28 mice were injected with a total amount of 100 μl/vaccine/mouse containing the above listed compounds at different sites as indicated. Spleens were harvested for each experimental group on day 35 and enriched for CD4^+ T cells by magnetic separation (MACS). CD4^+ T cell-depleted spleen cells were used to determine the CD8^+ T cell response. MHC class II restricted (CD4^+ T cells) as well as MHC class I restricted T cell responses (CD8^+ T cells) against each single HCV-derived peptide were determined using an IFN-7 ELIspot assay. In general, restimulation with an irrelevant peptide induced no IFN-7 production.
Vaccine: Injection volume of 100 μl per mouse contains: As antigens: Ipep 83 200 μg, Ipep 84 200 μg, Ipep 87 200 μg, Ipep 89 200 μg, Ipep 1426 200 μg As adjuvant: Poly-L-Arginine with an average degree of polymerization of 40 to 50 arginine residues (determined by MALLS); lot 113K7277; Sigma Aldrich Inc.; 400 μg • Additional adjuvant: Aldara™ containing 5% Imiquimod, an immunostimulatory agent acting via TLR7; 3M Health Care Ltd.; dose: approx 20 mg/mouse • Formulation buffer: 5 mM phosphate/270 mM sorbitol Experimental set-up 30 mice per group (10 per time point of analysis) • 1. intradermal injection into the back • 2. intradermal injection into the back followed by immediate application of Aldara™ cream at injection area […]

[1] = Example 1: subcutaneous injection into the flank, days 0, 14 and 28, spleens day 35

GYKVLVLNPSVAAT [Ipep 84]
MHC class I-restricted CD8+ T cell response (IFN-γ ELIspot) [1]: could be detected
MHC class II-restricted CD4+ T cell response (IFN-γ ELIspot) [1]: could be detected
IFN-γ production by MHC class I-restricted CD8+ T cells (Example 2: two intradermal injections, day 21): induced in comparable strength
